Laboratory results taken from US20080318970A1, “Treatment of Infectious Diseases” (priority 2004, published 2008).
Like-named read-outs stand apart in the source and are kept apart here.

What was measured:
Format in all cases: cell-based
[1] = system: E. coli, LN 3164; assay: MIC susceptibility test, microdilution broth method (NCCLS), chemosensitising compound alone; details: 16 h
Protocol: Bacteria were sub-cultured on Mueller-Hinton agar plates and incubated over night at 37° C. Pre-warmed Mueller-Hinton broth was inoculated with colonies from the plate and incubated for approximately three hours to achieve a log phase culture. The log phase culture of bacteria was diluted with fresh pre-warmed medium and adjusted to a defined Optical Density (OD) at 600 nm in order to give a final assay concentration of 1×10^4 bacteria/ml medium.
Cell growth was tested using the MIC susceptibility tests by use of the microdilution broth method in accordance to the NCCLS Guidelines (NCCLS Guidelines, Methods for Dilution Antimicrobial Susceptibility Tests for Bacteria That Grow Aerobically; Approved Standard, Sixth Edition, Volume 23; Number 2). A 100% Mueller-Hinton broth and a bacterial concentration of 1×10^4/ml were used.
A log phase culture of bacteria was diluted with fresh pre-warmed medium and adjusted to a defined OD at 600 nm in order to give a final concentration of 1×10^4 bacteria/ml medium in each well. Each chemosensitising compound was added to the bacterial culture in the wells in two-fold dilutions in order to give final concentrations ranging from 8 to 500 μg/ml. Trays were incubated at 37° C. for 16 h. Minimal Inhibitory Concentration, (MIC) is defined as the lowest inhibitory concentration showing no visible growth according to the NCCLS Guidelines.

[2] = system: E. coli, LN 3164; assay: Effect of chemosensitising compounds on DR (DR ratio) with ciprofloxacin, microtiter assay; details: E. coli LN 3164; for DR ratio: MIC ciprofloxacin alone / MIC ciprofloxacin + chemosensitising compound at ¼ of its MIC
Protocol: The effects of the chemosensitising compounds on DR were studied by the microtiter assay described above by exposing cells to 0-64 μg/ml anti-infective drug in the absence or presence of chemosensitising compound. Each experiment was repeated in tripleduplicate. MIC values represent the mean values of two separate experiments.
A log phase culture of bacteria was diluted with fresh pre-warmed medium and adjusted to a defined OD at 600 nm in order to give a final concentration of 1×10^4 bacteria/ml medium in each well. […] Anti-infective agent was added to the bacterial culture in the wells in two-fold dilutions in order to give final concentrations ranging from 0 to 64 μg/ml. Trays were incubated at 37° C. for 16 h. The DR ratio was defined as the ratio between the MIC value for anti-infective agent alone divided by the MIC for the anti-infective agent in the presence of the chemosensitising compound. This ratio represents the increase in apparent potency of the anti-infective agent caused by the chemosensitising compound, and may be expressed as
DR ratio=(MICanti-infective agent)/(MICanti-infective agent+chemosensitising compound)

[3] = system: Fluconazole Resistant Candida albicans; assay: Checkerboard combination study on fungals, broth microdilution (NCCLS M27-A); details: Candida albicans
Protocol: The synergistic effect of Trans-clopenthixol was studied by checkerboard combination studies exposing cells to 0-256 μg/ml anti-infective agent in the absence or presence of trans-clopenthixol (0 to 8 μg/ml in two-fold dilutions). Each experiment was repeated in tripleduplicate. MIC values represent the mean values of two separate experiments.
Clinical Isolate of a Fluconazole Resistant Candida albicans from a Patient with candidemia.
The isolates were subcultured for 24 h on Sabouraud glucose agar before susceptibility testing.
Broth microdilution tests were performed according to NCCLS document M27-A (Ref: National Committee for Clinical Laboratory Standards. (1997). Reference Method for Broth Dilution Antifungal Susceptibility Testing of Yeasts: Approved Standard M27-A. NCCLS, Wayne, Pa.)
Microtitre plates were read spectrophotometrically at 530 nm, after mixing the wells by pipetting to resuspend yeast sediments.
The Fractional Inhibitory Concentration (FIC) was calculated for the anti-infective agent alone and in combination with trans-clopenthixol. The following formulae were used to calculate the FIC index:
FIC=FICchemosensitising compound+FICanti-infective agent
FICchemosensitising compound=(MICchemosensitising compound+anti-infective agent)/(MICchemosensitising compound)
FICanti-infective agent=(MICanti-infective agent+chemosensitising compound/(MICanti-infective agent)
Synergy was defined as a FIC index of <0.5.

## CN(C)CCCN1c2ccccc2Sc2cccc(Cl)c21 [1-chlorpromazine]
[1]; 37° C.
  MIC: 64 µg/mL
[2]
  DR ratio: 2

## CN(C)CCN1c2ccccc2Sc2ccc(Cl)cc21 [2-chloro-10-(2-dimethylaminoethyl)phenothiazine]
[1]; Escherichia coli, LN3164, 37° C., read-out: MIC
  MIC: 64 µg/mL
[2]
  DR ratio: 2

## CN(C)CCCN1c2cc(Cl)ccc2Sc2cc(O)c(O)cc21 [7,8-dihydroxy-chlorpromazine, 7,8-dihydroxychlorpromazine]
[1]; 37° C.
  MIC: 125 µg/mL
[2]
  DR ratio: 0.5

## CN(C)CCCN1c2ccc(O)cc2Sc2ccc(Cl)cc21 [7-hydroxy-chlorpromazine, 7-hydroxychlorpromazine]
[1]; 37° C.
  MIC: 125 µg/mL
[2]
  DR ratio: 1

## CNCCCN1c2ccccc2Sc2ccc(Cl)cc21 [Desmethyl-chlorpromazine, desmethylchlorpromazine]
[1]; 37° C.
  MIC: 32 µg/mL
[2]
  DR ratio: 2

## OC(Cn1cncn1)(Cn1cncn1)c1ccc(F)cc1F [Fluconazole, reference compound]
[3]
  MIC: 128 µg/mL

## OCCN1CCN(CCCN2c3ccccc3Sc3ccc(C(F)(F)F)cc32)CC1 [Fluphenazine, fluphenazine]
[1]; 37° C.
  MIC: 32 µg/mL
[2]
  DR ratio: 8

## OCCN1CCN(CCCN2c3ccccc3Sc3ccc(Cl)cc32)CC1 [Perphenazine, perphenazine]
[1]; 37° C.
  MIC: 125 µg/mL
[2]
  DR ratio: 4

## CN1CCN(CCCN2c3ccccc3Sc3ccc(Cl)cc32)CC1 [Prochlorperazine, prochlorperazine]
[1]; 37° C.
  MIC: 64 µg/mL
[2]
  DR ratio: 4

## CN(C)CCCN1c2ccccc2Sc2ccccc21 [Promazine, promazine]
[1]; 37° C.
  MIC: 64 µg/mL
[2]; ciprofloxacin
  sensitised drug resistant cells to ciprofloxacin by: 100%
[2]
  DR ratio: 2
